Test results taken from patent US10870635B2, “Compounds and their use as BACE1 inhibitors” (ALLGENESIS BIOTHERAPEUTICS, INC., priority 2015, dated 2020).

Assays:
[1] = in humans; cited from earlier work
[2] = biological target: BACE1 (recombinant β-secretase enzyme) (Homo sapiens (Human), UniProt P56817); assay: AnaSpec BACE1 fluorescent assay (beta-secretase activity assay); type: biochemical
Description: A BACE1 activity assay kit from AnaSpec (Fremont, Calif.) was used to determine the potency of the selected BACE1 inhibitors by AnaSpec BACE1 fluorescent assay. The recombinant β-secretase enzyme was diluted 1:200 in 1× assay buffer (1 part of 1× assay buffer and 1 part of TBS containing 0.1% Tween 20). The enzyme was added in a volume of 40 μl to each well of a black 96-well micro plate.
The BACE1 inhibitors were serially diluted into DMSO from their 10 mM stock concentrations in DMSO. The serially diluted inhibitors were diluted 1:100 into 1× assay buffer in a 96-well polypropylene plate (assay dilution plate). The final concentration of the BACE1 inhibitor tested was 300 nM, 100 nM, 30 nM, 10 nM, 3 nM, 1 nM 0.3 nM, and 0.00 nM. Dose responses for inhibitors were run in duplicate.
A volume of 10 μl of the inhibitor from the assay dilution plate, a control inhibitor LY2886721 or inhibitor vehicle was then added to each well of the black 96-well micro plate containing BACE1.
(§1) To each well of the black 96-well micro plate, 50 μl of the β-secretase substrate (Hylite Fluor 488) diluted 1:100 using assay buffer was added. The reagents were mixed gently and the assay plate was placed into a POLARstar fluorescent plate reader with excitation wavelength set at 485 nm and the emission wavelength set at 520 nm. The plate reader was set to take readings every 5 minutes for up to 30 minutes or a 30 minute endpoint reading was used.
An appropriate integrated first-order rate equation was used to fit the data accumulated over a 30-40 minute collection period.

recombinant BACE2 = recombinant BACE2 (Homo sapiens (Human), UniProt Q9Y5Z0); assay: AnaSpec BACE2 fluorescent assay; type: biochemical
Sequence of recombinant BACE2 (Q9Y5Z0 63-518): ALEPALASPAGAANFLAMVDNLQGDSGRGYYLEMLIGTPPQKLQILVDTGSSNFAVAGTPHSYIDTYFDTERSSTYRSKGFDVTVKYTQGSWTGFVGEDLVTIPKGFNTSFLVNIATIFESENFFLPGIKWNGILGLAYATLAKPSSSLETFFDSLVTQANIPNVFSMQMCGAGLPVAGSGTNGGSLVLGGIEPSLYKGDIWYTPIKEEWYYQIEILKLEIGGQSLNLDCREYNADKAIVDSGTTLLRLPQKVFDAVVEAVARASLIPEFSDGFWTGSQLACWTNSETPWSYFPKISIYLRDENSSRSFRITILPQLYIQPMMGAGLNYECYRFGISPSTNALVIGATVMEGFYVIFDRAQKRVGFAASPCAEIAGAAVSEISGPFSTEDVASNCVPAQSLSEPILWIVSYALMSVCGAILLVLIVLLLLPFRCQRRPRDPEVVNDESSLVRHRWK
Description: A BACE2 activity assay kit from AnaSpec (Fremont, Calif.) was used to determine the potency of the selected compounds by AnaSpec BACE2 fluorescent assay. To each well of a black 96-well micro plate, 50 μl of the β-secretase substrate (Hylite Fluor 488) diluted 1:100 using assay buffer was first added.
The compounds were serially diluted (1:2) into DMSO from their 10 mM stock concentrations in DMSO. The serially diluted inhibitors were diluted 1:100 into 1× assay buffer in a 96-well polypropylene plate (assay dilution plate). The final concentration of these compounds tested was 300 nM, 150 nM, 75 nM, 37.5 nM, 18.75 nM, 9.375 nM, 4.688 nM, 2.344 nM, 1.172 nM, 0.586 nM, and 0.293 nM.
A volume of 10 μl of the inhibitor from the assay dilution plate, a control inhibitor LY2886721 or inhibitor vehicle was then added to each well of the black 96-well micro plate.
The recombinant BACE2 was diluted in an assay buffer and the final BACE2 was 10.6 nM. The enzyme was added in a volume of 40 μl to each well of a black 96-well micro plate.
as §1, with “The” for “To each well of the black 96-well micro plate, 50 μl of the β-secretase substrate (Hylite Fluor 488) diluted 1:100 using assay buffer was added. The”
An appropriate integrated first-order rate equation was used to fit the data accumulated over a 30-40 minute collection period. Dose responses for inhibitors were run in duplicate.

[3] = biological target: Human recombinant cathepsin D (Homo sapiens (Human), UniProt P07339); assay: Cathepsin D activity assay; type: biochemical; conditions: read-out: CatD IC50
Sequence of Human recombinant cathepsin D (P07339 65-412): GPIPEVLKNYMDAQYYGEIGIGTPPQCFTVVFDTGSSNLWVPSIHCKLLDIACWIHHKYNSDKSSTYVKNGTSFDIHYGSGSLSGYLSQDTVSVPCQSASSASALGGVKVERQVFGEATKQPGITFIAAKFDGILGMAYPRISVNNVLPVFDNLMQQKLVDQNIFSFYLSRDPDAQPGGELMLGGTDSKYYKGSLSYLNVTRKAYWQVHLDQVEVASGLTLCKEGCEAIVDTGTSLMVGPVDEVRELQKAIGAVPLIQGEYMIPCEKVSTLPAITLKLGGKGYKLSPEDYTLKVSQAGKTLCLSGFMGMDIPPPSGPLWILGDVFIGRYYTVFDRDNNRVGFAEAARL
Description: The development of a CatD activity assay is used to determine any potential cross reactivity for compounds selected from the β-secretase activity assay and to determine the selectivity to BACE1 inhibition. The CatD activity is reported for assessing target selectivity ratio (CatD IC50/BACE1 IC50).
The reagents for the cathepsin D assay were prepared as follows.
Human recombinant cathepsin D stored frozen in 2.0 μl aliquots was thawed and 42 μl of enzyme buffer (0.1M NaOAC, 0.2 M NaCl, pH 3.5) was added and incubated at 37° C. for 30 minutes. After 30 minutes the enzyme was further diluted to a final volume of 4.4 ml in enzyme buffer containing 5.0 mM DTT for immediate use in the cathepsin D assay.
The 7-methoxycoumarin-labeled peptide substrate (ES010) for cathepsin D was supplied as a 6.2 mM stock in DMSO. For use in the cathepsin D assay, the 6.2 mM stock was diluted to a 1.55 mM stock with DMSO. The 1.55 mM peptide stock in DMSO was further diluted 1:100 in reaction buffer (0.1M NaOAC, 0.2M NaCl, 0.1% Tween 20, 5.0 mM DTT, pH3.5) to create a 15.5 μM stock for use in the assay.
DMSO without compound served as a DMSO vehicle control for the cathepsin D assay. For each test compound, 30 μl of each dilution was pipetted into a separate well of a 96-well polypropylene plate. This polypropylene plate was labeled as the DMSO dilution plate and a plate map of test compound locations was made.
Test compounds from the DMSO dilution plate require a 1:100 dilution into reaction buffer before they can be added to the cathepsin D assay plate. To accomplish the 1:100 dilution of test compounds, 2.0 μl of each test compound at each concentration was pipetted from the DMSO dilution plate (using a multi-channel pipette calibrated to accurately dispense a 2.0 μl volume) into a new 96-well polypropylene plate using the plate map created for the DMSO dilution plate. This 96-well plate served as the inhibitor dilution plate. Next, 198 μl of reaction buffer was pipetted into each well of the inhibitor dilution plate (using a multi-channel pipette calibrated for accurate delivery of a 198 μl volume) and the pipetted test compound mixed by gentle up and down pipetting.
A1.0 mM stock of pepstatin A was made in DMSO and aliquotted into 5.0 μl samples for freezing and storage at −20° C. Upon thawing, 45 μl of DMSO (1:10 dilution) was added to create a 100 μM stock of pepstatin A in DMSO. The 100 μM Pepstatin A stock was further diluted 1:10 with DMSO to create a 10 μM stock in DMSO. […]
The assay plate was placed into a fluorescent plate reader with the excitation wavelength set at 320 nm and the emission wavelength set at 405 nm. Readings were collected every minute over a 30 minute collection period.

[4] = animal toxicology study; cited from earlier work
[5] = tested on: CSF Aβ40, Aβ42 and soluble APPβ; conditions: AD patients, reported by Merck; cited from earlier work

Sequence of BACE1 (recombinant β-secretase enzyme) (P56817 46-501): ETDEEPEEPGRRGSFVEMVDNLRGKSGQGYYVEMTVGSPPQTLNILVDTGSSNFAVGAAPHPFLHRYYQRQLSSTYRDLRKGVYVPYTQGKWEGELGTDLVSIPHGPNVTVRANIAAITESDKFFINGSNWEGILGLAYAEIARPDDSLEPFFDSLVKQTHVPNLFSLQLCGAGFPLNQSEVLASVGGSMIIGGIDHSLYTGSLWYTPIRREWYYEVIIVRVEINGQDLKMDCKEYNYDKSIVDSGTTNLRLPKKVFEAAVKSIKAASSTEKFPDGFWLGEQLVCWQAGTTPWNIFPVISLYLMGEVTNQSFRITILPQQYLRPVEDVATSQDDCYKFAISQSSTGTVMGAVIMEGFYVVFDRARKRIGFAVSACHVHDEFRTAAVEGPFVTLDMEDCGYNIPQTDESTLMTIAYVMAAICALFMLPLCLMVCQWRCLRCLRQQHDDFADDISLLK

| SMILES | IC50 [2] [nM] | IC50 (recombinant BACE2) [nM] | IC50 [3] [nM] | also measured |
| --- | --- | --- | --- | --- |
| NC1=N[C@@]2(c3cc(NC(=O)c4ccc(F)cn4)ccc3F)COC[C@H]2CS1 [LY-2886721] | – | – | – | toxicity finding leading to termination [1]: liver toxicity |
| CC#Cc1ccc2sc3cc(Cl)c([C@]4(C)CC(=O)N(C)C(N)=N4)cc3c2c1 [Example 71, (S)-2-Amino-6-(3-chloro-8-(prop-1-yn-1-yl)dibenzo[b,d]thiophen-2-yl)-3,6-dimethyl-5,6-dihydropyrimidin-4(3H)-one] | 44 | 23.8 ± 1.52 | 3900 | – |
| C[C@@]1(c2cc(-c3cncnc3)c(F)cc2F)CCSC(N)=N1 [LY-2811376] | – | – | – | toxicity finding leading to discontinuation [4]: retinal toxicity |
| CC#Cc1ccc2[nH]c([C@]3(C)CC(=O)N(C)C(=N)N3)c(Cl)c2c1 [Example 38, (S)-6-(3-Chloro-5-(prop-1-yn-1-yl)-1H-indol-2-yl)-2-imino-3,6-dimethyl-tetrahydropyrimidin-4(1H)-one] | 44 | 24 | – | – |
| CC#Cc1ccc2sc3ccc([C@]4(C)CC(=O)N(C)C(=N)N4)cc3c2c1 [Example 1, (S)-2-Imino-3,6-dimethyl-6-(8-(prop-1-yn-1-yl)dibenzo[b,d]thiophen-2-yl)tetrahydropyrimidin-4(1H)-one] | 26 | – | 12300 | – |
| CN1C(=N)N[C@](C)(c2cc(NC(=O)c3ccc(F)cn3)ccc2F)CS1(=O)=O [MK-8931] | – | – | – | effect on CSF Aβ40, Aβ42 and soluble APPβ [5]: reduce CSF Aβ40, Aβ42 and soluble APPβ |
